Experimental data published in US20060247223A1, “Non-imidazole alkylamines as histamine H3- receptor ligands and their therapeutic applications” (priority 1998, published 2006).
Counter-ions that a name gives are not always drawn.

Compared with `CCC(=NOC)c1ccc(OCCCN2CCCCC2C)cc1.Cl` (centres unmarked), `CC1CCCCN1CCCOc1ccc(C#N)cc1.Cl` (centres unmarked) is lower in melting point: 185 to 187 °C for the first, 177 to 180 °C for the second.

First: C[C@@H]1CCC[C@H](C)N1CCCCCOc1ccccc1.Cl
Second: CC1CCCCN1CCCCCOc1ccccc1 (centres unmarked) (as salt: oxalate) [Example 7, 1-(5-phenoxypentyl)-2-methyl-piperidine]
The melting point of the first is higher: 135 to 136 °C for the first, 80 to 83 °C for the second.

Compared with `CC1CCCN(CCCOc2ccc(C#N)cc2)C1.Cl` (centres unmarked), `CC1CCN(CCCOc2ccc(C#N)cc2)CC1` (as salt: hydrochloride) [Example 78, 1-[3-(4-cyanophenoxy)propyl]-4-methylpiperidine] is higher in melting point: 171 to 173 °C for the first, 200 to 202 °C for the second.

First: CC(=O)CCc1ccc(OCCCN2CCCCC2)cc1.Cl
Second: CC(=O)c1ccc(OCCCCCN2CCCC2)cc1 (as salt: oxalate) [Example 39, 1-[5-(4-acetylphenoxy)-pentyl]-pyrrolidine]
The melting point of the first is higher: 148 to 150 °C for the first, 130 to 134 °C for the second.

First: N#Cc1ccc(OCCCN2CCCCC2)cc1F (as salt: hydrochloride) [Example 82, 1-[3-(4-cyano-3-fluorophenoxy)propyl]piperidine]
Second: N#Cc1cccc(OCCCCCN2CCCC2)c1 (as salt: oxalate) [Example 41, 1-[5-(3-cyanophenoxy)-pentyl]-pyrrolidine]
The melting point of the first is higher: 157 to 159 °C for the first, 119 to 120 °C for the second.

First: CC1CCCCN1CCCOc1ccc(C#N)cc1 (centres unmarked) (as salt: hydrochloride) [Example 98]
Second: N#Cc1ccc(OCCCCCN2CCCC2)cc1 (as salt: oxalate) [Example 22, 1-[5-(4-cyanophenoxy)-pentyl]-pyrrolidine]
The melting point of the first is higher: 151 to 153 °C for the first, 129 to 130 °C for the second.

First: c1ccc(OCCCCCN2CCCCC2)cc1 (as salt: oxalate) [Example 1, 1-(5-phenoxypentyl)-piperidine]
Second: c1ccc(OCCCCCN2CCCCCC2)cc1 (as salt: oxalate) [Example 5, N-(5-phenoxypentyl)-hexamethyleneimine]
The melting point of the first is higher: 143 to 145 °C for the first, 132 to 134 °C for the second.

Compared with `c1ccc(OCCCCCN2CCCC2)cc1` (as salt: oxalate) [Example 2, 1-(5-phenoxypentyl)-pyrrolidine], `c1ccc(OCCCCCCN2CCCC2)cc1` (as salt: oxalate) [Example 32, 1-(6-phenoxyhexyl)-pyrrolidine] is lower in melting point: 153 to 155 °C for the first, 146 to 147 °C for the second.

First: CCN(C)CCCCCOc1ccccc1 (as salt: oxalate) [Example 3, N-methyl-N-(5-phenoxypentyl)-ethylamine]
Second: CCCN(CC)CCCCCOc1ccccc1 (as salt: oxalate) [Example 6, N-ethyl-N-(5-phenoxypentyl)-propylamine]
The melting point of the first is higher: 122 to 124 °C for the first, 90 to 91 °C for the second.

First: CCCC1CCN(CCCCCOc2ccccc2)CC1 (as salt: oxalate) [Example 8, 1-(5-phenoxypentyl)-4-propyl-piperidine]
Second: CC1CCN(CCCCCOc2ccccc2)CC1 (as salt: oxalate) [Example 9, 1-(5-phenoxypentyl)-4-methyl-piperidine]
The melting point of the first is higher: 165 to 166 °C for the first, 151 to 152 °C for the second.

First: CC(=O)N1CCN(CCCCCOc2ccccc2)CC1 (as salt: oxalate) [Example 11, 1-acetyl-4-(5-phenoxypentyl)-piperazine]
Second: c1ccc(OCCCCN2CCCC2)cc1 (as salt: oxalate) [Example 31, 1-(4-phenoxybutyl)-pyrrolidine]
The melting point of the first is higher: 186 to 188 °C for the first, 143 to 144 °C for the second.

Compared with `C[C@@H]1C[C@H](C)CN(CCCCCOc2ccccc2)C1` (as salt: oxalate) [Example 13, 1-(5-phenoxypentyl)-3,5-cis-dimethyl-piperidine], `C1=CCN(CCCCCOc2ccccc2)CC1` (as salt: oxalate) [Example 17, 1-(5-phenoxypentyl)-1,2,3,6-tetrahydropyridine] is higher in melting point: 154 to 155 °C for the first, 177 to 179 °C for the second.

First: CCOC(=O)C1CCN(CCCCCOc2ccccc2)CC1 (as salt: oxalate) [Example 15, 4-carboethoxy-1-(5-phenoxypentyl)-piperidine]
Second: CCOC(=O)C1CCCN(CCCCCOc2ccccc2)C1 (centres unmarked) (as salt: oxalate) [Example 16, 3-carboethoxy-1-(5-phenoxypentyl)-piperidine]
The melting point of the first is higher: 149 to 150 °C for the first, 117 to 118 °C for the second.

`Clc1ccc(OCCCCCN2CCCC2)cc1` (as salt: oxalate) [Example 19, 1-[5-(4-chlorophenoxy)-pentyl]-pyrrolidine] and `Cc1ccc(OCCCCCN2CCCC2)cc1` (as salt: oxalate) [Example 21, 1-[5-(4-methylphenoxy)-pentyl]-pyrrolidine] cannot be ordered by melting point: 139 to 141 °C for the first, 138 to 140 °C for the second.

First: COc1ccc(OCCCCCN2CCCC2)cc1 (as salt: oxalate) [Example 20, 1-[5-(4-methoxyphenoxy)-pentyl]-pyrrolidine]
Second: Fc1ccc(OCCCCCN2CCCC2)cc1 (as salt: oxalate) [Example 37, 1-[5-(4-fluorophenoxy)-pentyl]-pyrrolidine]
The melting point of the first is lower: 115 to 116 °C for the first, 149 to 150 °C for the second.

First: c1ccc2c(OCCCCCN3CCCC3)cccc2c1 (as salt: oxalate) [Example 24, 1-[5-(1-naphthyloxy)-pentyl]-pyrrolidine]
Second: c1ccc(-c2ccc(OCCCCCN3CCCC3)cc2)cc1 (as salt: oxalate) [Example 26, 1-[5-(4-phenylphenoxy)-pentyl]-pyrrolidine]
The melting point of the first is lower: 160 to 163 °C for the first, 189 to 190 °C for the second.

First: Clc1cccc(OCCCCCN2CCCC2)c1 (as salt: oxalate) [Example 25, 1-[5-(3-chlorophenoxy)-pentyl]-pyrrolidine]
Second: O=[N+]([O-])c1cccc(OCCCCCN2CCCC2)c1 (as salt: oxalate) [Example 36, 1-[5-(3-nitrophenoxy)-pentyl]-pyrrolidine]
The melting point of the first is higher: 131 to 132 °C for the first, 130 to 131 °C for the second.

First: c1cc2c(cc1OCCCCCN1CCCC1)CCCC2 (as salt: oxalate) [Example 27, 1-{5-[2-(5,6,7,8-tetrahydronaphthyl)-oxy]-pentyl}-pyrrolidine]
Second: c1cc2c(c(OCCCCCN3CCCC3)c1)CCCC2 (as salt: oxalate) [Example 30, 1-{5-[1-(5,6,7,8-tetrahydronaphthyl)-oxy]-pentyl}-pyrrolidine]
The melting point of the first is lower: 131 to 132 °C for the first, 148 to 149 °C for the second.

First: c1ccc(SCCCCCN2CCCC2)cc1 (as salt: oxalate) [Example 33, 1-(5-phenylthiopentyl)-pyrrolidine]
Second: c1ccc(SCCCCN2CCCC2)cc1 (as salt: oxalate) [Example 34, 1-(4-phenylthiobutyl)-pyrrolidine]
The melting point of the first is higher: 150 to 152 °C for the first, 114 to 116 °C for the second.

Compared with `CC1CCCN(CCCCCOc2ccc([N+](=O)[O-])cc2)C1` (centres unmarked) (as salt: oxalate) [Example 38, 1-[5-(4-nitrophenoxy)-pentyl]-3-methyl-piperidine], `Nc1ccc(OCCCCCN2CCCC2)cc1` (as salt: oxalate) [Example 40, 1-[5-(4-aminophenoxy)-pentyl]-pyrrolidine] is lower in melting point: 148 to 149 °C for the first, 120 to 122 °C for the second.

Work on `CCN(CC)CCCOc1ccc([N+](=O)[O-])cc1` (as salt: oxalate) [Example 42, N-[3-(4-nitrophenoxy)-propyl]-diethylamine] yielded a melting point of 160 to 161 °C.
